Results published in patent publication US9439906B2, “Dosing regimen associated with long acting injectable paliperidone esters” (Janssen Pharmaceutica NV, priority 2007, dated 2016).
pKd: −log10 of the molar value.

Molecular target: D2 receptor (Homo sapiens, UniProt P14416)
Experiment: PET central D2 occupancy studies SWE-1 and SIV-101
Assay type: in vivo
Description: It has been empirically derived and is currently widely excepted that 65-70% occupancy is needed for antipsychotics to show clinical efficacy (Farde et al.), i.e. improvement on the PANSS scale. A too high occupancy (80-85%) will typically increase the risk to develop EPS. In order to determine the central D2 occupancy, PET trials in human healthy volunteers are typically performed.

Sequence of D2 receptor (P14416 whole entry): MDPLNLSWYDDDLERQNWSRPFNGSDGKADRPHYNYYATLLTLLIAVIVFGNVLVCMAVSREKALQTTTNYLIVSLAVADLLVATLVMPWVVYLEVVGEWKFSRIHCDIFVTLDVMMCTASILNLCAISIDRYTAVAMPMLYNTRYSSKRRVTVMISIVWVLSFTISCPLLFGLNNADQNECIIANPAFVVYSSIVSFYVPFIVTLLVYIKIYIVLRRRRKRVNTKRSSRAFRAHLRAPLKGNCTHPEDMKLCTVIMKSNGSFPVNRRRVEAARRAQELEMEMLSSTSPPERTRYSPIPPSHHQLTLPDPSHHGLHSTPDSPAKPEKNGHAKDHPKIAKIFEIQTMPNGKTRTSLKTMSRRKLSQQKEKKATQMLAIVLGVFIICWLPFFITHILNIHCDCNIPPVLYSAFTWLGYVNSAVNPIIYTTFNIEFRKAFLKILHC

Compound: Cc1nc2n(c(=O)c1CCN1CCC(c3noc4cc(F)ccc34)CC1)CCCC2O (centres unmarked) [paliperidone, 9-hydroxy-risperidone]
- pKd: 7.82 to 7.99
- exposure range for efficacy without an increased risk to develop EPS (target exposure range) (calculated using the 65-85% D2 occupancy window): 7.5 to 40 ng/mL
